Experimental data reported in the CheMixHub viscosity set.
Values joined by “and” are separate entries in the source; they are usually repeats but may differ in a detail not shown here. Equal values may be shown once.

Key:
[1] = xn = mol fraction of the nth substance listed

CN1CCN(C)C1=O
100 kPa
Conditions | viscosity [mPa·s]
293.15 K | 2.139
298.15 K | 1.945
303.15 K | 1.76
308.15 K | 1.616
313.15 K | 1.491
318.15 K | 1.381
323.15 K | 1.28

CCOC(=O)OCC
Conditions | viscosity
293.15 K, 101 kPa | 0.8024 mPa·s
298.15 K, 101 kPa | 0.74 mPa·s and 0.7539 mPa·s
303.15 K, 100 kPa | 0.698 mPa·s
303.15 K, 101 kPa | 0.701 mPa·s
308.15 K, 100 kPa | 0.65 mPa·s
308.15 K, 101 kPa | 0.656 mPa·s
313.15 K, 100 kPa | 0.622 mPa·s
313.15 K, 101 kPa | 0.621 mPa·s
318.15 K, 100 kPa | 0.58 mPa·s
318.15 K, 101.3 kPa | 0.578 mPa·s
318.15 K, 101.33 kPa | 0.578 mPa·s
323.15 K, 100 kPa | 0.54 mPa·s
323.15 K, 101 kPa | 0.543 mPa·s

CCCCCC(=O)[O-].[NH3+]CCO
101 kPa
Conditions | viscosity [mPa·s]
293.15 K | 2571
298.15 K | 1765
303.15 K | 1239
308.15 K | 892.2
313.15 K | 645.8
318.15 K | 477.6
323.15 K | 358.5

CCC#N
viscosity [mPa·s]
Conditions | 298.15 K | 303.15 K | 308.15 K | 313.15 K | 318.15 K | 323.15 K
101 kPa | 0.42 | 0.41 | 0.39 | 0.37 | 0.36 | 0.31
101.33 kPa | – | 0.3886 | – | – | – | –

Cc1ccc(N)cc1
101 kPa
Conditions | viscosity [mPa·s]
313.05 K | 2.08
323.1 K | 1.8

COCCOCCO
viscosity
Conditions | 293.15 K | 298.15 K | 303.15 K | 308.15 K | 313.15 K | 318.15 K | 323.15 K
101 kPa | 3.906 mPa·s | 3.442 mPa·s and 3.574 mPa·s | 3.152 mPa·s | 2.593 mPa·s | – | 2.159 mPa·s | –
101.3 kPa | 3.943 mPa·s | – | 3.016 mPa·s | – | 2.348 mPa·s | – | 1.902 mPa·s
101.33 kPa | – | 3.565 mPa·s and 3.565 mPa·s | – | 2.627 mPa·s and 2.865 mPa·s | – | – | –

c1ccc(Oc2ccccc2)cc1
101 kPa
Conditions | viscosity
303.15 K | 3.3 mPa·s and 3.051 mPa·s
308.15 K | 2.92 mPa·s
313.15 K | 2.61 mPa·s

COC=O
Conditions | viscosity [mPa·s]
298.15 K, 101.33 kPa | 0.328

OCCOCCOCCO
viscosity
Conditions | 293.15 K | 298.1 K | 298.15 K | 308.15 K | 313.15 K | 318.15 K | 323.15 K
100 kPa | 42 mPa·s and 48.2 mPa·s and 48.4 mPa·s | – | 37.1 mPa·s and 37.8 mPa·s | 23.3 mPa·s | 19.8 mPa·s | 15.4 mPa·s and 15.83 mPa·s and 15.1 mPa·s | 13.23 mPa·s
101 kPa | – | 37.4 mPa·s | 37.1 mPa·s | 23.36 mPa·s and 21.2 mPa·s | 19.8 mPa·s | 15.59 mPa·s and 16.1 mPa·s | –
101.32 kPa | 46.1 mPa·s | – | – | – | 17.4 mPa·s | – | –

Cl[Si](Cl)(Cl)Cl
101 kPa
Conditions | viscosity
303.1 K | 0.462 mPa·s and 0.442 mPa·s
313.1 K | 0.402 mPa·s

Cc1ccccc1C
Conditions | viscosity
293.15 K, 101 kPa | 0.7604 mPa·s
293.15 K, 101.33 kPa | 0.812 mPa·s
298.15 K, 100 kPa | 0.7464 mPa·s
298.15 K, 101 kPa | 0.765 mPa·s and 0.761 mPa·s
298.15 K, 101.3 kPa | 0.78 mPa·s
298.15 K, 101.33 kPa | 0.7587 mPa·s
303.15 K, 101 kPa | 0.6725 mPa·s and 0.68 mPa·s and 0.7095 mPa·s
303.15 K, 101.3 kPa | 0.7272 mPa·s and 0.7062 mPa·s
303.15 K, 101.32 kPa | 0.702 mPa·s
303.15 K, 101.33 kPa | 0.757 mPa·s and 0.711 mPa·s
308.15 K, 100 kPa | 0.6199 mPa·s
308.15 K, 101 kPa | 0.676 mPa·s and 0.656 mPa·s
308.15 K, 101.33 kPa | 0.5381 mPa·s and 0.725 mPa·s and 0.659 mPa·s
313.15 K, 101.32 kPa | 0.627 mPa·s
313.15 K, 101.33 kPa | 0.702 mPa·s
318.15 K, 101.33 kPa | 0.682 mPa·s
323.15 K, 101.3 kPa | 0.5554 mPa·s

OCCN(CCO)CCO
viscosity
Conditions | 293.15 K | 298.15 K | 303.15 K | 313.15 K | 323.15 K
100 kPa | 935 mPa·s | 611 mPa·s | 413 mPa·s | – | –
101 kPa | 911.7 mPa·s and 795 mPa·s | 607 mPa·s | 403 mPa·s | 201.7 mPa·s | 123 mPa·s

CCCCCCC(=O)[O-].CC[NH+](C(C)C)C(C)C
Conditions | viscosity [mPa·s]
298.15 K, 101.3 kPa | 12.23

CCCCCCCCCCO + CCCCCC
viscosity [mPa·s], [1]
Conditions | 298.15 K | 313.15 K
101 kPa, x1 = 0.1542 | 0.53 | 0.436
101 kPa, x1 = 0.2062 | 0.652 | 0.522
101 kPa, x1 = 0.2913 | 0.903 | 0.696
101 kPa, x1 = 0.4059 | 1.404 | 1.025
101 kPa, x1 = 0.5224 | 2.204 | 1.524
101 kPa, x1 = 0.604 | 3.005 | 2.014
101 kPa, x1 = 0.7085 | 4.435 | 2.85
101 kPa, x1 = 0.8065 | 6.289 | 3.857
101 kPa, x1 = 0.8728 | 7.898 | 4.705
101.3 kPa, x1 = 0.0533 | 0.372 | –
101.3 kPa, x1 = 0.1124 | 0.458 | –
101.3 kPa, x1 = 0.1601 | 0.545 | –
101.3 kPa, x1 = 0.208 | 0.651 | –
101.3 kPa, x1 = 0.2525 | 0.733 | –
101.3 kPa, x1 = 0.3012 | 0.929 | –
101.3 kPa, x1 = 0.4024 | 1.377 | –
101.3 kPa, x1 = 0.5028 | 2.028 | –
101.3 kPa, x1 = 0.6001 | 2.934 | –
101.3 kPa, x1 = 0.7019 | 4.26 | –
101.3 kPa, x1 = 0.7954 | 5.923 | –
101.3 kPa, x1 = 0.8487 | 7.108 | –
101.3 kPa, x1 = 0.9002 | 8.453 | –
101.3 kPa, x1 = 0.9622 | 10.36 | –

NC(N)=O + CO
viscosity [mPa·s], [1], 101 kPa
Conditions | 293.15 K | 298.15 K | 303.15 K | 308.15 K | 313.15 K | 318.15 K | 323.15 K
x1 = 0.08238 | 0.924 | 0.849 | 0.781 | 0.721 | 0.668 | 0.62 | 0.576
x1 = 0.09642 | – | 0.9735 | 0.8914 | 0.8215 | 0.7546 | 0.6953 | –
x1 = 0.1034 | 1.031 | 0.942 | 0.864 | 0.794 | 0.732 | 0.677 | 0.627
x1 = 0.1289 | 1.164 | 1.064 | 0.975 | 0.896 | 0.826 | 0.764 | 0.707
x1 = 0.138 | – | 1.222 | 1.111 | 1.019 | 0.9311 | 0.8588 | –

Cc1ccccc1C + CC(C)CO
[1], 308.15 K, 101 kPa
Conditions | viscosity [mPa·s]
x2 = 0.0649 | 0.669
x2 = 0.1278 | 0.681
x2 = 0.2187 | 0.684
x2 = 0.3335 | 0.77
x2 = 0.4418 | 0.851
x2 = 0.5688 | 0.986
x2 = 0.6291 | 1.064
x2 = 0.7214 | 1.215
x2 = 0.8196 | 1.486
x2 = 0.9023 | 1.835
x2 = 0.9616 | 2.245

Cc1ccc(Cl)cc1 + CCCCCC
viscosity [mPa·s], [1], 100 kPa
Conditions | 298.15 K | 308.15 K | 318.15 K
x1 = 0.0878 | 0.332 | 0.307 | 0.285
x1 = 0.1581 | 0.352 | 0.324 | 0.3
x1 = 0.2446 | 0.379 | 0.348 | 0.322
x1 = 0.2988 | 0.397 | 0.364 | 0.337
x1 = 0.4004 | 0.435 | 0.398 | 0.367
x1 = 0.47 | 0.466 | 0.426 | 0.393
x1 = 0.5234 | 0.492 | 0.448 | 0.412
x1 = 0.572 | 0.519 | 0.47 | 0.429
x1 = 0.622 | 0.548 | 0.493 | 0.449
x1 = 0.681 | 0.584 | 0.524 | 0.475
x1 = 0.7857 | 0.654 | 0.584 | 0.53
x1 = 0.8603 | 0.707 | 0.632 | 0.572
x1 = 0.9366 | 0.773 | 0.687 | 0.618

Cc1ccccc1C + CCC(C)O
[1], 308.15 K, 101 kPa
Conditions | viscosity [mPa·s]
x2 = 0.0648 | 0.655
x2 = 0.1275 | 0.663
x2 = 0.2083 | 0.681
x2 = 0.3048 | 0.679
x2 = 0.3787 | 0.715
x2 = 0.4323 | 0.742
x2 = 0.5015 | 0.796
x2 = 0.6005 | 0.879
x2 = 0.6944 | 1.048
x2 = 0.7978 | 1.265
x2 = 0.9485 | 1.751
